Laboratory results: patent publication US20250140406A1, “CLASSIFYING TUMORS AND PREDICTING RESPONSIVENESS” (Oncocyte Corporation, priority 2022, published 2025)

What was measured:
[1] = system: cancer cell lines classified IM, MSL, M; test: PRISM screen compound sensitivity correlated with IM, MSL and M subtype of cell lines (101 gene signature); assay type: cell-based; details: for IM Corr test: correlation of PRISM compound sensitivity with IM subtype correlation; for M Corr test: correlation of PRISM compound sensitivity with M subtype correlation; for MSL Corr test: correlation of PRISM compound sensitivity with MSL subtype correlation
[2] = system: cancer cell lines, DetermaIO classes; test: Association of PRISM compound sensitivity with DetermaIO (DTIO) cell line classes; assay type: cell-based
[3] = subtype (IM, MSL or M) assigned to the compound by negative correlation of PRISM sensitivity with subtype, training cell set (371 cell lines), 101 gene signature
[4] = correlation of PRISM compound sensitivity with DTIO (DetermaIO), test cell set (188 cell lines)
[5] = correlation of PRISM compound sensitivity with DTIO (DetermaIO), training cell set (371 cell lines)
[6] = correlation of PRISM compound sensitivity with DTIO, test cell set
[7] = correlation of PRISM compound sensitivity with DTIO, training cell set
[8] = subtype (IM, MSL or M) with which PRISM compound sensitivity is negatively correlated, training cell set, 101 gene signature

c1ccc2sc(N3CCN(Cc4ccc5c(c4)OCO5)CC3)nc2c1
IM Corr test ([1]; test cell set (188 cell lines)): 0.03417
M Corr test ([1]; test cell set (188 cell lines)): −0.06017
MSL Corr test ([1]; test cell set (188 cell lines)): −0.05087
TNBCType train [1, 3]: MSL
DTIO Corr test [2, 4]: 0.0115
DTIO Corr train [2, 5]: 0.00776

CCCCC/C=C\C=C\CCCCCCCCC(=O)O
IM Corr test ([1]; test cell set): −0.1138
M Corr test ([1]; test cell set): 0.05243
MSL Corr test ([1]; test cell set): 0.00293
DTIO Corr test [2, 6]: −0.07628
DTIO Corr train [2, 7]: −0.1009

CN(N=O)C(=O)N[C@H]1C(O)O[C@H](CO)[C@@H](O)[C@@H]1O (mixture of isomers) [streptozotocin]
IM Corr test ([1]; test cell set): −0.07058
M Corr test ([1]; test cell set): 0.07616
MSL Corr test ([1]; test cell set): −0.07788
TNBCType train [1, 8]: MSL
DTIO Corr test [2, 6]: −0.06131
DTIO Corr train [2, 7]: 0.03601

CCNCCCNCCCCNCCCNCC [1,12-Besm]
IM Corr test ([1]; test cell set (188 cell lines)): −0.00575
M Corr test ([1]; test cell set (188 cell lines)): −0.0837
MSL Corr test ([1]; test cell set (188 cell lines)): −0.1322
DTIO Corr test [2, 6]: 0.02016
DTIO Corr train [2, 7]: 0.07515

C[C@@]1(O)[C@H](O)[C@@H](CO)O[C@H]1n1cnc2c(NC3CCCC3)nc(Cl)nc21 [2′-MeCCPA]
IM Corr test ([1]; test cell set (188 cell lines)): −0.06271
M Corr test ([1]; test cell set (188 cell lines)): 0.03452
MSL Corr test ([1]; test cell set (188 cell lines)): −0.04413
TNBCType train [1, 3]: MSL
DTIO Corr test [2, 4]: −0.0753
DTIO Corr train [2, 5]: −0.01341

Nc1nccc2c1ncn2C1C=C(CO)C(O)C1O (stereo not drawn) [3-deazaneplanocin-A]
IM Corr test ([1]; test cell set (188 cell lines)): −0.02722
M Corr test ([1]; test cell set (188 cell lines)): 0.1507
MSL Corr test ([1]; test cell set (188 cell lines)): 0.09034
DTIO Corr test [2, 4]: −0.05245
DTIO Corr train [2, 5]: −0.1309

O=c1[nH]cnc2ccccc12 [4-HQN]
IM Corr test ([1]; test cell set (188 cell lines)): −0.06704
M Corr test ([1]; test cell set (188 cell lines)): 0.04595
MSL Corr test ([1]; test cell set (188 cell lines)): 0.1063
DTIO Corr test [2, 4]: 0.05447
DTIO Corr train [2, 5]: −0.1475

O=S(=O)(O)c1ccc(O)cc1 [4-phenolsulfonic-acid]
IM Corr test ([1]; test cell set): −0.06223
M Corr test ([1]; test cell set): 0.02717
MSL Corr test ([1]; test cell set): 0.006866
DTIO Corr test [2, 6]: −0.03477
DTIO Corr train [2, 7]: −0.1569

O=C(O)c1ccc(N2C(=O)/C(=C\c3ccc(-c4ccc([N+](=O)[O-])cc4)o3)C=C2c2ccccc2)cc1 [4E1RCat]
IM Corr test ([1]; test cell set (188 cell lines)): 0.05564
M Corr test ([1]; test cell set (188 cell lines)): −0.08971
MSL Corr test ([1]; test cell set (188 cell lines)): 0.01051
DTIO Corr test [2, 4]: 0.01627
DTIO Corr train [2, 5]: 0.1551

Cc1ccc(C[N+](C)(C)C)o1.[I-] [5-methylfurmethiodide]
IM Corr test ([1]; test cell set): −0.09845
M Corr test ([1]; test cell set): 0.06783
MSL Corr test ([1]; test cell set): 0.0844
DTIO Corr test [2, 6]: −0.01347
DTIO Corr train [2, 7]: −0.1413

CN[C@@H]1C[C@H]2O[C@@](C)([C@@H]1OC)n1c3ccccc3c3c4c(c5c6ccccc6n2c5c31)C(=O)N[C@H]4O [7-hydroxystaurosporine]
IM Corr test ([1]; test cell set): −0.06588
M Corr test ([1]; test cell set): 0.06924
MSL Corr test ([1]; test cell set): 0.09088
DTIO Corr test [2, 6]: −0.07646
DTIO Corr train [2, 7]: −0.1515

COc1ccc2nc3c(c(N)c2c1)CCCC3 [7-methoxytacrine]
IM Corr test ([1]; test cell set): −0.03879
M Corr test ([1]; test cell set): −0.03683
MSL Corr test ([1]; test cell set): −0.06604
TNBCType train [1, 8]: MSL
DTIO Corr test [2, 6]: 0.06329
DTIO Corr train [2, 7]: −0.03204

Nc1nc2c(nc(Br)n2[C@@H]2O[C@@H]3COP(=O)(O)O[C@H]3[C@H]2O)c(=O)[nH]1 [8-bromo-cGMP]
IM Corr test ([1]; test cell set (188 cell lines)): −0.00708
M Corr test ([1]; test cell set (188 cell lines)): −0.06633
MSL Corr test ([1]; test cell set (188 cell lines)): −0.05953
TNBCType train ([1]; subtype (IM, MSL or M) with which compound sensitivity is negatively correlated, training cell set (371 cell lines), 101 gene signature): MSL
DTIO Corr test [2, 6]: −0.017
DTIO Corr train [2, 7]: 0.07485

CCN(CC)CCCCN1c2ccccc2Oc2ccc(Cl)cc21 [10-DEBC]
IM Corr test ([1]; test cell set (188 cell lines)): −0.00116
M Corr test ([1]; test cell set (188 cell lines)): −0.0627
MSL Corr test ([1]; test cell set (188 cell lines)): −0.03074
DTIO Corr test [2, 4]: −0.02503
DTIO Corr train [2, 5]: −0.1109

Cc1ccc(Sc2cncc3sc(C(N)=O)cc23)cc1 [A205804]
IM Corr test ([1]; test cell set (188 cell lines)): −0.1562
M Corr test ([1]; test cell set (188 cell lines)): 0.1655
MSL Corr test ([1]; test cell set (188 cell lines)): 0.07391
DTIO Corr test [2, 4]: −0.1235
DTIO Corr train [2, 5]: −0.1273

C/C=C1/[C@H](O[C@@H]2O[C@H](CO)[C@@H](O)[C@H](O)[C@H]2O)OC=C(C(=O)OC)[C@H]1CC(=O)OCCc1ccc(O)c(O)c1 [A00842753]
TNBCType test ([1]; classification of association of compound sensitivity with IM, MSL and M cell line classes, test data set): MSL
TNBCType train ([1]; classification of association of compound sensitivity with IM, MSL and M cell line classes, training data set): MSL
DTIO Corr test ([2]; association of compound sensitivity with DetermaIO classes, test data set): 0.02172
DTIO Corr train ([2]; association of compound sensitivity with DetermaIO classes, training data set): −0.00213
